The results in this text go back to patent US7538102B2, “Compounds for the treatment of Hepatitis C” (Bristol-Myers Squibb Company, priority 2007, dated 2009).

SMILES strings stand for the structures.

For one assay, the target named is T1, HCV NS5B (Hepatitis C virus genotype 1b, UniProt Q9WMX2).
T1 construct: The protein was expressed with an 18 amino acid C-terminal truncation to enhance the solubility; made in house; host or cells: E. coli BL21(DE3)
In words: HCV NS5B RdRp enzyme assay (standard or modified). To be noted: HCV NS5B RdRp genotype 1b; standard or modified enzyme assay not specified; read-out: IC50. It is filed as biochemical. The protocol:
HCV NS5B RdRp cloning, expression, and purification. The cDNA encoding the NS5B protein of HCV, genotype 1b, was cloned into the pET21a expression vector. The protein was expressed with an 18 amino acid C-terminal truncation to enhance the solubility. The E. coli competent cell line BL21(DE3) was used for expression of the protein. Cultures were grown at 37° C. for ˜4 hours until the cultures reached an optical density of 2.0 at 600 nm. The cultures were cooled to 20° C. and induced with 1 mM IPTG. Fresh ampicillin was added to a final concentration of 50 μg/ml and the cells were grown overnight at 20° C.
Cell pellets (3 L) were lysed for purification to yield 15-24 mgs of purified NS5B. The lysis buffer consisted of 20 mM Tris-HCl, pH 7.4, 500 mM NaCl, 0.5% triton X-100, 1 mM DTT, 1mM EDTA, 20% glycerol, 0.5 mg/ml lysozyme, 10 mM MgCl2, 15 ug/ml deoxyribonuclease I, and Complete TM protease inhibitor tablets (Roche). After addition of the lysis buffer, frozen cell pellets were resuspended using a tissue homogenizer. To reduce the viscosity of the sample, aliquots of the lysate were sonicated on ice using a microtip attached to a Branson sonicator. The sonicated lysate was centrifuged at 100,000×g for 1 hr at 4° C. and filtered through a 0.2 μm filter unit (Corning).
The protein was purified using two sequential chromatography steps: Heparin sepharose CL-6B and polyU sepharose 4B (Pharmacia). The chromatography buffers were identical to the lysis buffer but contained no lysozyme, deoxyribonuclease I, MgCl2 or protease inhibitor and the NaCl concentration of the buffer was adjusted according to the requirements for charging the protein onto the column. Each column was eluted with a NaCl gradient which varied in length from 5-50 column volumes depending on the column type. After the final chromatography step, the resulting purity of the enzyme is >90% based on SDS-PAGE analysis. The enzyme was aliquoted and stored at −80° C.
Standard HCV NS5B RdRp enzyme assay. HCV RdRp genotype 1b assays were run in a final volume of 60 μl in 96 well plates (Corning 3600). The assay buffer is composed of 20 mM Hepes, pH 7.5, 2.5 mM KCl, 2.5 mM MgCl2, 1 mM DTT, 1.6 U RNAse inhibitor (Promega N2515), 0.01 mg/ml BSA (Sigma B6917), and 2% glycerol. All compounds were serially diluted (3-fold) in DMSO and diluted further in water such that the final concentration of DMSO in the assay was 2%. HCV RdRp genotype 1b enzyme was used at a final concentration of 28 nM. A polyA template was used at 6 nM, and a biotinylated oligo-dT12 primer was used at 180 nM final concentration. Template was obtained commercially (Amersham 27-4110). Biotinylated primer was prepared by Sigma Genosys. 3H-UTP was used at 0.6 μCi (0.29 μM total UTP). Reactions were initiated by the addition of enzyme, incubated at 30° C. for 60 min, and stopped by adding 25 μl of 50 mM EDTA containing SPA beads (4 μg/pl, Amersham RPNQ 0007). Plates were read on a Packard Top Count NXT after >1 hr incubation at room temperature.
Modified HCV NS5B RdRp enzyme assay. A modified enzyme assay was performed essentially as described for the standard enzyme assay except for the following: The biotinylated oligo dT12 primer was precaptured on streptavidin-coated SPA beads by mixing primer and beads in assay buffer and incubating at room temperature for one hour. Unbound primer was removed after centrifugation. The primer-bound beads were resuspended in 20 mM Hepes buffer, pH 7.5 and used in the assay at final concentrations of 20 nM primer and 0.67 μg/μl beads. Order of addition in the assay: enzyme (1.75 nM) was added to diluted compound followed by the addition of a mixture of template (0.36 nM), 3H-UTP (0.6 μCi, 0.29 μM), and primer-bound beads, to initiate the reaction; concentrations given are final. Reactions were allowed to proceed for 4 hours at 30° C.
IC50 values for compounds were determined using seven different [I]. […]

For another assay, the system named is HCV replicon. In words: HCV replicon FRET / luciferase assay. It counts as cell-based. Particulars: Hepatitis C virus; HCV replicon cells; 50% reduction in FRET or luciferase activity; read-out: EC50. On the procedure: FRET Assay Preparation. The HCV FRET screening assay was performed in 96-well cell culture plates. The FRET peptide (Anaspec, Inc.) (Taliani et al., Anal. Biochem. 1996, 240, 60-67) contains a fluorescence donor, EDANS, near one end of the peptide and an acceptor, DABCYL, near the other end. The fluorescence of the peptide is quenched by […] resonance energy transfer (RET) between the donor and the acceptor, but as the NS3 protease cleaves the peptide the products are released from RET quenching and the fluorescence of the donor becomes apparent. The assay reagent was made as follows: 5× cell Luciferase cell culture lysis reagent from Promega (#E153A) diluted to 1× with dH2O, NaCl added to 150 mM final, the FRET peptide diluted to 20 μM final from a 2 mM stock.
To prepare plates, HCV replicon cells, with or without a Renilla luciferase reporter gene, were trypsinized and plated in a 96-well plate with titrated test compounds added in columns 3 through 12; columns 1 and 2 contained a control compound (HCV control inhibitor), and the bottom row contained cells with DMSO only. The plates were then placed in a CO2 incubator at 37° C.
Assays. Subsequent to addition of the test compounds described above (FRET Assay Preparation), at various times the plate was removed and Alamar blue solution (Trek Diagnostics, #00-100) was added to measure cellular toxicity. After reading in a Cytoflour 4000 instrument (PE Biosystems), plates were rinsed with PBS and then used for FRET assay by the addition of 30 ul of the FRET peptide assay reagent described above (FRET Assay Preparation) per well. The plate was then placed into the Cytoflour 4000 instrument which had been set to 340 excite/490 emission, automatic mode for up to 20 cycles and the plate read in a kinetic mode. Typically, the signal to noise using an endpoint analysis after the reads was at least three-fold. Alternatively, after Alamar blue reading, plates were rinsed with PBS, then used for luciferase assay using the Promega Dual-Glo Luciferase Assay System or the Promega EnduRen Live Cell Substrate assay.
Compound analysis was performed by quantification of the relative HCV replicon inhibition and the relative cytotoxicity values. To calculate cytoxicity values, the average Alamar Blue fluorescence signals from the control wells were set as 100% non-toxic. The individual signals in each of the compound test wells were then divided by the average control signal and multiplied by 100% to determine […]. To calculate the HCV replicon inhibition values, an average background value was obtained from the two wells containing the highest amount of HCV control inhibitor at the end of the assay period. These numbers were similar to those obtained from naive Huh-7 cells. The background numbers were then subtracted from the average signal obtained from the control wells and this number was used as 100% activity. The individual signals in each of the compound test wells were then divided by the averaged control values after background subtraction and multiplied by 100% to determine percent activity. EC50 values were calculated as the concentration which caused a 50% reduction in FRET or luciferase activity. The two numbers generated for the compound plate, percent cytoxicity and percent activity, were used to determine compounds of interest for further analysis.

T1 sequence (Q9WMX2 2420-2992): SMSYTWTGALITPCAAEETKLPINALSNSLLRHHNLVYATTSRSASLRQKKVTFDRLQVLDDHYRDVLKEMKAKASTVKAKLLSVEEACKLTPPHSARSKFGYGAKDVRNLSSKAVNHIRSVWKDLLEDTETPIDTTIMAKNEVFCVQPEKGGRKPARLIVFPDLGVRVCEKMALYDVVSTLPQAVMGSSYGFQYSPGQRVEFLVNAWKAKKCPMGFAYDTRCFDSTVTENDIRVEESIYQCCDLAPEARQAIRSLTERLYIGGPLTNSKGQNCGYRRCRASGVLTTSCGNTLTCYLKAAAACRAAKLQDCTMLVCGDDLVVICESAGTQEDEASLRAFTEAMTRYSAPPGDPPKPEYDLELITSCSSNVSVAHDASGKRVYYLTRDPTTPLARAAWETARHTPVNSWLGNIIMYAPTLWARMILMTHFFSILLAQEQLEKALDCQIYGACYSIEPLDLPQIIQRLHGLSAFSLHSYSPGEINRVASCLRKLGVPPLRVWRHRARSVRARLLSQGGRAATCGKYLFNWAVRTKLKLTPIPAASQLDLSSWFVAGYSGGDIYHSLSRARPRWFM

Regarding `COc1ccc2c(c1)C1CC1(C(=O)N1CCN(C)C[C@H]1c1ccccc1)Cn1c-2c(C2CCCCC2)c2ccc(C(=O)NS(=O)(=O)C(C)C)cc21` (some centres unmarked), the IC50 on HCV NS5B was in the range of 3 to 1000 nM. Also, in the assay with HCV replicon, the EC50 fell in the range of 3 to 1000 nM.
For the molecule `COc1ccc2c(c1)C1CC1(C(=O)N1CCN(C)CC1c1ccccc1)Cn1c-2c(C2CCCCC2)c2ccc(C(=O)NS(=O)(=O)N(C)C)cc21` (centres unmarked) [drawing 44], on HCV NS5B, the IC50 is 3 to 1000 nM. In addition, in the assay with HCV replicon, the EC50 is 3 to 1000 nM.
`COc1ccc2c(c1)C1CC1(C(=O)N1CCN(C)CC1c1ccccc1)Cn1c-2c(C2CCCCC2)c2ccc(C(=O)NS(=O)(=O)C(C)C)cc21` (centres unmarked) [drawing 74]: the IC50 at HCV NS5B was 3 to 1000 nM. Besides, the EC50 with HCV replicon was 3 to 1000 nM.
As to `COc1ccc2c(c1)C1C[C@]1(C(=O)N1CCN(C)CC1c1ccccc1)Cn1c-2c(C2CCCCC2)c2ccc(C(=O)NS(=O)(=O)C(C)C)cc21` (some centres unmarked) [drawing 78], the IC50 on HCV NS5B fell in the range of 3 to 1000 nM. For the same molecule, the half-maximal effective concentration (EC50) with HCV replicon lay within 3 to 1000 nM.
